Measured values published in patent US11066668B2, “Compositions and methods for modulation of IKBKAP splicing” (Ionis Pharmaceuticals, Inc., priority 2012, dated 2021).
Oligonucleotides are written 5' to 3', each unit as a sugar letter and its base; * is a phosphorothioate linkage, no mark a phosphodiester; rarer units and linkages stand in square brackets, end groups in braces. Plain capitals give the bases only. e = 2'-O-(2-methoxyethyl) (MOE); [5mC] = 5-methylcytosine

System: IKBKAP pre-mRNA (mt19-21 minigene)
Test: Exon 20 inclusion in HEK-293 cells harboring the mt19-21 IKBKAP minigene (RT-PCR)
Format: cell-based, human
Details: HEK-293 with mt19-21 minigene; for % inclusion (exon 20): 0.007 nmol oligonucleotide by electroporation, RT-PCR two days later; for effect on exon 20 inclusion/skipping, in words: 0.007 nmol oligonucleotide
Protocol: Antisense oligonucleotides were designed targeting a human IKBKAP nucleic acid and were tested for their effects on IKBKAP pre-mRNA in vitro. Together, the overlapping antisense oligonucleotides spanned the entire 74-nucleotide region of the IKBKAP exon 20 sequence, as well as the 100-nucleotide intronic regions immediately upstream and downstream of exon 20. The antisense oligonucleotides are presented in Table 1, and were designed as uniform 2′-O-methoxyethyl ribose (MOE) oligonucleotides with phosphate backbones. Each oligonucleotide is 15 nucleosides in length. All cytosine residues throughout the oligonucleotide are 5-methylcytosines. ‘Start Site’ indicates the 5′-most nucleoside to which the oligonucleotide is targeted in the human gene sequence. “Stop site” indicates the 3′-most nucleoside to which the oligonucleotide is targeted in the human gene sequence. Each oligonucleotide listed in Table 1 is targeted to the human IKBKAP genomic sequence (the complement of GENBANK Accession No NT_008470.16 truncated from nucleotides 13290828 to Ser. No. 13/358,424, designated herein as SEQ ID NO: 1). ISIS 414161 has one mismatch with SEQ ID NO: 1.
Cultured HEK-293 cells harboring the mt19-21 minigene vector construct at a density of 7×10^5 cells per well were transfected using electroporation (Gene Pulsar II apparatus, Bio-Rad) with 0.007 nmol antisense oligonucleotide, as previously described (Hua, Y., et al., 2007. PLoS Biol 5:e73). […] These oligonucleotides served as controls for non-specific effects of uniform MOE oligonucleotides with phosphate backbones. Cells harboring the wt19-21 minigene and the mt19-21 minigene alone were also cultured and were used as controls for exon 20 inclusion levels. Two days later, cDNA synthesized from total RNA extracted from HEK-293 cells was amplified using the forward primer pCDNAF and reverse primer sequence IKAP21R4 to assay the splicing pattern of expressed RNAs by RT-PCR. To calculate exon 20 inclusion levels, the PCR amplicons were labeled with α^32P-dCTP. The PCR products were then separated by native PAGE, followed by phosphorimage analysis on a FUJIFILM FLA-5100 instrument (Fuji Medical Systems USA Inc.). The band intensities were quantified using Multi Gauge software Version 2.3 (FUJIFILM), and values were normalized for the G+C content according to the DNA sequence.
Treatment with antisense oligonucleotides targeting the 3′ and 5′ splice sites caused increased skipping of exon 20.
Additional oligonucleotides were designed targeting the first 30-nucleotide stretch of ISS-40. These oligonucleotides were designed by choosing sequences shifted in one nucleotide increments upstream and downstream (i.e., a “microwalk”) of ISS-40, starting from the +6 position in exon 20. The antisense oligonucleotides are presented in Table 2 and FIG. 4D, and were designed as uniform 2′-O-methoxyethyl ribose (MOE) oligonucleotides with phosphate backbones. Each oligonucleotide is 20 nucleosides in length. All cytosine residues throughout the oligonucleotide are 5-methylcytosines. ‘Start Site’ indicates the 5′-most nucleoside to which the oligonucleotide is targeted in the human gene sequence. “Stop site” indicates the 3′-most nucleoside to which the oligonucleotide is targeted in the human gene sequence. Each oligonucleotide listed in Table 2 is targeted to intron 20 of the human IKBKAP genomic sequence (the complement of GENBANK Accession No NT_008470.16 truncated from nucleotides 13290828 to Ser. No. 13/358,424, designated herein as SEQ ID NO: 1). These oligonucleotides were tested in vitro.
Cultured HEK-293 cells harboring the mt19-21 minigene vector construct at a density of 7×10^5 cells per well were transfected using electroporation (Gene Pulsar II apparatus, Bio-Rad) with 0.007 nmol antisense oligonucleotide, as previously described (Hua, Y., et al., 2007. PLoS Biol 5:e73). […]

Row | Substance | % inclusion (exon 20) (Table 1) [%] | effect on exon 20 inclusion/skipping, in words | % inclusion (exon 20) (Table 2 (microwalk experiment)) [%]
1 | ISIS 414139: uniform 2′-MOE 15-mer, phosphate backbone; GTAGAAAACATTTAA, SEQ ID NO 18, intron 19 (eGeTeAeGeAeAeAeAe[5mC]eAeTeTeTeAeA; splice-switching) | 20 | – | –
2 | ISIS 414135: uniform 2′-MOE 15-mer, phosphate backbone; CAGGATACACCATTT, SEQ ID NO 14, intron 19 (e[5mC]eAeGeGeAeTeAe[5mC]eAe[5mC]e[5mC]eAeTeTeT; splice-switching) | 46 | positive effect on exon 20 inclusion | –
3 | ISIS 414155: uniform 2′-MOE 15-mer, phosphate backbone; TCTGAGCTAAAACCA, SEQ ID NO 34, exon 20 (eTe[5mC]eTeGeAeGe[5mC]eTeAeAeAeAe[5mC]e[5mC]eA; splice-switching) | 6 | – | –
4 | ISIS 414177: uniform 2′-MOE 15-mer, phosphate backbone; CTTTTCATAATTTTA, SEQ ID NO 56, intron 20 (e[5mC]eTeTeTeTe[5mC]eAeTeAeAeTeTeTeTeA; splice-switching) | 25 | – | –
5 | ISIS 414134: uniform 2′-MOE 15-mer, phosphate backbone; TACACCATTTTACCT, SEQ ID NO 13, intron 19 (eTeAe[5mC]eAe[5mC]e[5mC]eAeTeTeTeTeAe[5mC]e[5mC]eT; splice-switching) | 25 | – | –
6 | ISIS 414143: uniform 2′-MOE 15-mer, phosphate backbone; GCAGTAACATTTTTA, SEQ ID NO 22, intron 19 (eGe[5mC]eAeGeTeAeAe[5mC]eAeTeTeTeTeTeA; splice-switching) | 8 | – | –
7 | ISIS 414156: uniform 2′-MOE 15-mer, phosphate backbone; CCGAATCTGAGCTAA, SEQ ID NO 35, exon 20 (e[5mC]e[5mC]eGeAeAeTe[5mC]eTeGeAeGe[5mC]eTeAeA; splice-switching) | 5 | – | –
8 | ISIS 414133: uniform 2′-MOE 15-mer, phosphate backbone; CATTTTACCTAACTC, SEQ ID NO 12, intron 19 (e[5mC]eAeTeTeTeTeAe[5mC]e[5mC]eTeAeAe[5mC]eTe[5mC]; splice-switching) | 25 | – | –
9 | ISIS 414170: uniform 2′-MOE 15-mer, phosphate backbone; AATACTTATTGTCTT, SEQ ID NO 49, intron 20 (eAeAeTeAe[5mC]eTeTeAeTeTeGeTe[5mC]eTeT; splice-switching) | 32 | – | –
10 | ISIS 414158: uniform 2′-MOE 15-mer, phosphate backbone; CCAACCACTTCCGAA, SEQ ID NO 37, exon 20 (e[5mC]e[5mC]eAeAe[5mC]e[5mC]eAe[5mC]eTeTe[5mC]e[5mC]eGeAeA; splice-switching) | 1 | – | –
11 | ISIS 414162: uniform 2′-MOE 15-mer, phosphate backbone; TCGCAAACAGTACAA, SEQ ID NO 41, intron 20 (eTe[5mC]eGe[5mC]eAeAeAe[5mC]eAeGeTeAe[5mC]eAeA; splice-switching) | 79 | markedly increased inclusion of exon 20 | 82
12 | ISIS 414142: uniform 2′-MOE 15-mer, phosphate backbone; AACATTTTTAATTAA, SEQ ID NO 21, intron 19 (eAeAe[5mC]eAeTeTeTeTeTeAeAeTeTeAeA; splice-switching) | 23 | – | –
13 | ISIS 414164: uniform 2′-MOE 15-mer, phosphate backbone; AGCTAACTAGTCGCA, SEQ ID NO 43, intron 20 (eAeGe[5mC]eTeAeAe[5mC]eTeAeGeTe[5mC]eGe[5mC]eA; splice-switching) | 78 | markedly increased inclusion of exon 20 | 74
14 | ISIS 414171: uniform 2′-MOE 15-mer, phosphate backbone; AATAAAATACTTATT, SEQ ID NO 50, intron 20 (eAeAeTeAeAeAeAeTeAe[5mC]eTeTeAeTeT; splice-switching) | 32 | – | –
15 | ISIS 414148: uniform 2′-MOE 15-mer, phosphate backbone; TCTAAGTTTCCCCTT, SEQ ID NO 27, exon 20 (eTe[5mC]eTeAeAeGeTeTeTe[5mC]e[5mC]e[5mC]e[5mC]eTeT; splice-switching) | 7 | – | –
16 | ISIS 421998: uniform 2′-MOE 20-mer, phosphate backbone; TAACTAGTCGCAAACAGTAC, SEQ ID NO 67, intron 20 (eTeAeAe[5mC]eTeAeGeTe[5mC]eGe[5mC]eAeAeAe[5mC]eAeGeTeAe[5mC]; splice-switching) | – | – | 81
17 | ISIS 414151: uniform 2′-MOE 15-mer, phosphate backbone; CGATGATGAACAACT, SEQ ID NO 30, exon 20 (e[5mC]eGeAeTeGeAeTeGeAeAe[5mC]eAeAe[5mC]eT; splice-switching) | 0 | – | –
18 | ISIS 414160: uniform 2′-MOE 15-mer, phosphate backbone; TACAATGGCGCTTAC, SEQ ID NO 39, intron 20 (eTeAe[5mC]eAeAeTeGeGe[5mC]eGe[5mC]eTeTeAe[5mC]; splice-switching) | 14 | – | –
19 | ISIS 414163: uniform 2′-MOE 15-mer, phosphate backbone; ACTAGTCGCAAACAG, SEQ ID NO 42, intron 20 (eAe[5mC]eTeAeGeTe[5mC]eGe[5mC]eAeAeAe[5mC]eAeG; splice-switching) | 74 | markedly increased inclusion of exon 20 | 74
20 | ISIS 414169: uniform 2′-MOE 15-mer, phosphate backbone; TTATTGTCTTCACAC, SEQ ID NO 48, intron 20 (eTeTeAeTeTeGeTe[5mC]eTeTe[5mC]eAe[5mC]eAe[5mC]; splice-switching) | 21 | – | –
21 | ISIS 414165: uniform 2′-MOE 15-mer, phosphate backbone; TCACAAGCTAACTAG, SEQ ID NO 44, intron 20 (eTe[5mC]eAe[5mC]eAeAeGe[5mC]eTeAeAe[5mC]eTeAeG; splice-switching) | 66 | markedly increased inclusion of exon 20 | 64
22 | ISIS 414173: uniform 2′-MOE 15-mer, phosphate backbone; TCGAAATTGTAATAA, SEQ ID NO 52, intron 20 (eTe[5mC]eGeAeAeAeTeTeGeTeAeAeTeAeA; splice-switching) | 31 | – | –
23 | ISIS 414157: uniform 2′-MOE 15-mer, phosphate backbone; CACTTCCGAATCTGA, SEQ ID NO 36, exon 20 (e[5mC]eAe[5mC]eTeTe[5mC]e[5mC]eGeAeAeTe[5mC]eTeGeA; splice-switching) | 15 | – | –
